According to patent publication US20260176289A1, “SMALL MOLECULE INHIBITORS OF KRAS PROTEINS” (Merck Sharp & Dohme LLC, priority 2022, published 2026):
Like-named read-outs stand apart in the source and are kept apart here. Blank lines part the entries; values can stand above or below the molecule they belong to.

Columns and labels:
PANC08.13 cells = assay: Cellular phospho-ERK assay, PANC08.13 cells (homozygous KRAS-G12D); format: cell-based; settings: Homo sapiens, read-out: PANC-08.13 pERK IC50
Description: Procedure for Cellular Phospho-ERK Assay in KRAS Wild Type and Mutant (G12D, G12V) Cell Lines
MKN-1 cells (JCRB JCRB0252) containing amplified wild-type KRAS, were cultured in growth medium that contains RPMI 1640-GlutaMAX™-I (ThermoFisher Scientific 61870) containing 10% heat inactivated fetal bovine serum (ThermoFisher Scientific 10091148), 1 mM sodium pyruvate and 10 mM HEPES. PANC08.13 cells (ATCC® CRL-2551™), containing homozygous KRAS-G12D activating mutation, were cultured in growth medium made of RPMI1640-GlutaMAX™-I (ThermoFisher Scientific 61870) containing 15% heat inactivated fetal bovine serum (ThermoFisher Scientific 10091148)). AsPC-1 cells (ATCC® CRL-1682™), containing homozygous KRAS-G12D activating mutation, were cultured in T150 flask in growth medium (RPMI medium 1640-GlutaMAX™-I (ThermoFisher Scientific 61870) containing 10% fetal bovine serum (ThermoFisher Scientific 10091148)). SW620 cells (ATCC® […]), containing homozygous KRAS-G12V activating mutation, were cultured in growth medium that contains RPMI 1640-GlutaMAX™-I (ThermoFisher Scientific 61870) containing 10% heat inactivated fetal bovine serum (ThermoFisher Scientific 10091148).
Cells for the assay were harvested in growth medium after TrypLE (ThermoFisher scientific 12604021) digestion and were seeded in a 384-well collagen coated cell culture plate (Corning 356702) at a density of 10,000-15,000 cells/20 μL/well, and incubated at 37° C., 5% CO2 overnight. The compound (with 10 mM stock concentration) dose-response titrations were prepared [30 μM final ERK detection assay concentration and 1:3 dilutions, 10-point dose response] and appropriate amounts (270 nL) of test compounds were dispensed in a 384-well intermediate plate using an Echo 550 liquid handler. 30 μL/well of RPMI medium 1640-GlutaMAX™—I was added to the intermediate plate and the contents of the intermediate plate (10 μL/well) were then transferred to the 384-well collagen coated cell culture plate, which was incubated at 37° C., 5% CO2 for 2 hours. After removal of medium from the collagen coated cell culture plate, cells were lysed in lysis buffer from Alpha SureFire® Ultra™ Multiplex p-ERK and total ERK assay kit (PerkinElmer MPSU-PTERK) containing Halt™ Protease and Phosphatase inhibitor cocktail (ThermoFisher Scientific 78446) at room temperature with constant shaking at 300 rpm for 30 minutes. The cell lysates were then transferred to an OptiPlate-384 plate (PerkinElmer 6005620), and the phosphorylation of ERK (p-ERK) and total ERK levels were detected by Alpha SureFire® Ultra™ Multiplex p-EEK kit and total ERK assay kit (PerkinElmer MPSU-PTERK) following the manufacturer's protocol. Assay plates were read on a En Vision Multimode Plate Reader (PerkinElmer), and the ratio of p-ERK vs. total ERK in each well was used as the final readout. Dose response curves were analyzed using a 4-parameter logistic model to calculate IC50 values using Spotfire software.

KRAS-G13D = KRAS-G13D (Homo sapiens, UniProt P01116, G13D); assay: SOS-catalyzed nucleotide exchange assay (Procedure A, TR-FRET), KRAS-G13D; format: biochemical; settings: nucleotide exchange, Procedure A; read-out: KRAS G13D GNE IC50
Sequence of KRAS-G13D (P01116 with tags, fused parts or gaps isoform P01116-2 G13D): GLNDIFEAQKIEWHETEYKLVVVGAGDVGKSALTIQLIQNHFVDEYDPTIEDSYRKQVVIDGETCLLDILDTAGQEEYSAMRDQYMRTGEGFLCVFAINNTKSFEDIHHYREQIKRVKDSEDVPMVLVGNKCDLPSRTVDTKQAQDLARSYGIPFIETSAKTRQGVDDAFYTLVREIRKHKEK

[1] = target: KRAS-G12C (C51S/C80L/C118S) (Homo sapiens, UniProt P01116, C118S/C51S/C80L/G12C); assay: SOS-catalyzed nucleotide exchange assay (Procedure A, TR-FRET), KRAS-G12C; format: biochemical; settings: nucleotide exchange, Procedure A; read-out: KRAS G12C GNE IC50
Sequence of KRAS-G12C (C51S/C80L/C118S) (P01116 with tags, fused parts or gaps isoform P01116-2 G12C/C51S/C80L/C118S): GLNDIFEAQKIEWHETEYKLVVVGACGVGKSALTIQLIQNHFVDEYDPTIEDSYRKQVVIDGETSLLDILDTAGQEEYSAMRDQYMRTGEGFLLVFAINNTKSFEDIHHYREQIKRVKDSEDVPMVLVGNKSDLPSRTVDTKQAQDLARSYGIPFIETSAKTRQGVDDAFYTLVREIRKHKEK
Procedure, shortened: (§1)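 Compounds (10-point, 3-fold) were preincubated 60 min at room temperature with a biotinylated RAS/Bodipy-GDP/Tb-streptavidin TR-FRET complex. Exchange was started with human SOS plus 3 mM GTP. RAS/SOS: G12C 3/40 nM, WT 1/40 nM, NRAS 1.25/40 nM (60 min); G12V 1.25/160 nM (90 min). The 520/495 ratio was fit four-parameter.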

KRAS-WT = KRAS-WT (Homo sapiens, UniProt P01116); assay: SOS-catalyzed nucleotide exchange assay (Procedure A, TR-FRET), KRAS-WT; format: biochemical; settings: nucleotide exchange, read-out: KRAS WT GNE IC50
Sequence of KRAS-WT (P01116 with tags, fused parts or gaps isoform P01116-2): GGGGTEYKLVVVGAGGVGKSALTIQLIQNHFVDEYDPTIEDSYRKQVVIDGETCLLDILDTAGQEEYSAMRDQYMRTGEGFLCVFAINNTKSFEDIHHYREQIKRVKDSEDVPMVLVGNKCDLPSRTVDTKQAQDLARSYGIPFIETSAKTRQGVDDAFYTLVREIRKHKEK
Procedure, shortened: as §1

KRAS-G12D = KRAS-G12D (Homo sapiens, UniProt P01116, G12D); assay: SOS-catalyzed nucleotide exchange assay (Procedure A, TR-FRET), KRAS-G12D; format: biochemical; settings: nucleotide exchange, read-out: KRAS G12D GNE IC50
Sequence of KRAS-G12D (P01116 with tags, fused parts or gaps isoform P01116-2 G12D): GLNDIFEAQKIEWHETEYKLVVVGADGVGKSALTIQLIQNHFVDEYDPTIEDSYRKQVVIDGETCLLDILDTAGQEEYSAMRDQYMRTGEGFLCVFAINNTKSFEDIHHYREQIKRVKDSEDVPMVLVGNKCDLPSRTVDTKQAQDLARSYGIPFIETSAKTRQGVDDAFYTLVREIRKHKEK
Procedure, shortened: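 Signal ratio (520/495 nm, excitation 340 nm) reports Bodipy-GDP retention on biotinylated RAS after SOS-catalyzed exchange with 3 mM GTP. SOS was 40 nM, except 160 nM for G12V. Room-temperature exchange lasted 60 min (90 min for G12V), following a 60 min compound preincubation.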

KRAS-G12V = KRAS-G12V (Homo sapiens, UniProt P01116, G12V); assay: SOS-catalyzed nucleotide exchange assay (Procedure A, TR-FRET), KRAS-G12V; format: biochemical; settings: nucleotide exchange, read-out: KRAS G12V GNE IC50
Sequence of KRAS-G12V (P01116 with tags, fused parts or gaps isoform P01116-2 G12V): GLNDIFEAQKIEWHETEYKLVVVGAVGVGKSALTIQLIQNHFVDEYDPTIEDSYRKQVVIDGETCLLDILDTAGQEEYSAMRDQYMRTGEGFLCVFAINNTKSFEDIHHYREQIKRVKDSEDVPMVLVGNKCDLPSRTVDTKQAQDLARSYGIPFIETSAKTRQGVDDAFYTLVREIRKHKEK
Procedure, shortened: as §1

[2] = PANC-08-13, 2 hours compound incubation

SMILES: Cc1cc2[nH]nc(C)c2c(-c2nccc3c4c(N5CCOC[C@@](C)(O)C5)nc(OC[C@@]56CCCN5C[C@H](F)C6)nc4n(C)c23)c1C(F)F (single isomer, unassigned) [Ex-8]
- IC50 (PANC08.13 cells; PANC-08-13, KRAS-G12D, 2 hours): 1430 nM
- IC50 (KRAS-G13D): 2090 nM
- IC50 [1]: 1190 nM
- IC50 (KRAS-WT): 2250 nM
- IC50 (KRAS-G12D): 1500 nM
- IC50 (KRAS-G12V): 1650 nM

SMILES: Cn1c2nc(OC[C@@]34CCCN3C[C@H](F)C4)nc(N3CCOC[C@@](C)(O)C3)c2c2ccnc(-c3c(C(F)F)c(Cl)cc4[nH]nc(C#N)c34)c21 (single isomer, unassigned) [Ex-12]
- IC50 (PANC08.13 cells; PANC-08-13, KRAS-G12D, 2 hours): 6060 nM
- IC50 (KRAS-G13D): 2650 nM
- IC50 [1]: 584 nM
- IC50 (KRAS-WT): 5930 nM
- IC50 (KRAS-G12D): 2150 nM
- IC50 (KRAS-G12V): 2960 nM

SMILES: Cc1cc(-c2nccc3c2sc2nc(OC[C@@]45CCCN4C[C@H](F)C5)nc(N4CCOC[C@@](C)(O)C4)c23)c2cn[nH]c2c1 [Ex-37, (S)-4-(2-(((2R,7aS)-2-fluorotetrahydro-1H-pyrrolizin-7a(5H)-yl)methoxy)-8-(6-methyl-1H-indazol-4-yl)pyrido[4′,3′:4,5]thieno[2,3-d]pyrimidin-4-yl)-6-methyl-1,4-oxazepan-6-ol]
- IC50 (PANC08.13 cells; PANC-08-13, KRAS-G12D, 2 hours): 1800 nM
- IC50 (KRAS-G13D): 2450 nM
- IC50 [1]: 1480 nM
- IC50 (KRAS-WT): 3070 nM
- IC50 (KRAS-G12D): 1450 nM
- IC50 (KRAS-G12V): 1490 nM

SMILES: C#Cc1c(F)ccc2cc(N)nc(-c3nccc4c5c(N6CCOC[C@@](C)(O)C6)nc(OC[C@@]67CCCN6C[C@H](F)C7)nc5n(C)c34)c12 [Ex-17, (S)-4-(8-(3-amino-8-ethynyl-7-fluoroisoquinolin-1-yl)-2-(((2R,7aS)-2-fluorotetrahydro-1H-pyrrolizin-7a(5H)-yl)methoxy)-9-methyl-9H-pyrido[4′,3′:4,5]pyrrolo[2,3-d]pyrimidin-4-yl)-6-methyl-1,4-oxazepan-6-ol]
- IC50 (PANC08.13 cells; PANC-08-13, KRAS-G12D, 2 hours): 3750 nM
- IC50 (KRAS-G13D): 592 nM
- IC50 [1]: 300 nM
- IC50 (KRAS-WT): 1810 nM
- IC50 (KRAS-G12D): 1420 nM
- IC50 (KRAS-G12V): 1020 nM

SMILES: Cc1n[nH]c2cc(Cl)c(C(F)F)c(-c3nccc4c5c(N6CCOC[C@@](C)(O)C6)nc(OC[C@@]67CCCN6C[C@H](F)C7)nc5n(C)c34)c12 (single isomer, unassigned) [Ex-13]
- IC50 (PANC08.13 cells; PANC-08-13, KRAS-G12D, 2 hours): 4300 nM
- IC50 (KRAS-G13D): 4860 nM
- IC50 [1]: 1480 nM
- IC50 (KRAS-WT): 2750 nM
- IC50 (KRAS-G12D): 3660 nM
- IC50 (KRAS-G12V): 1660 nM

SMILES: Cc1cc2[nH]ncc2c(-c2nccc3c4c(N5CC6CCC(F)(C5)N6)nc(OC[C@@]56CCCN5C[C@H](F)C6)nc4n(C)c23)c1C(F)(F)F (single isomer, unassigned) [Ex-22]
- IC50 (PANC08.13 cells; PANC-08-13, KRAS-G12D, 2 hours): 3510 nM
- IC50 (KRAS-G13D): 456 nM
- IC50 [1]: 189 nM
- IC50 (KRAS-WT): 975 nM
- IC50 (KRAS-G12D): 2440 nM
- IC50 (KRAS-G12V): 409 nM

SMILES: Cc1cc2[nH]nc(C#N)c2c(-c2nccc3c4c(N5CCOC[C@@](C)(O)C5)nc(OC[C@@]56CCCN5C[C@H](F)C6)nc4n(C)c23)c1C(F)(F)F (single isomer, unassigned) [Ex-4]
- IC50 (PANC08.13 cells; PANC-08-13, KRAS-G12D, 2 hours): 1640 nM
- IC50 (KRAS-G13D): 430 nM
- IC50 [1]: 124 nM
- IC50 (KRAS-WT): 568 nM
- IC50 (KRAS-G12D): 339 nM
- IC50 (KRAS-G12V): 536 nM

Continued, values first:

- IC50 (PANC08.13 cells; PANC-08-13, KRAS-G12D, 2 hours): 306 nM
- IC50 (KRAS-G13D): 210 nM
- IC50 [1]: 116 nM
- IC50 (KRAS-WT): 377 nM
- IC50 (KRAS-G12D): 153 nM
- IC50 (KRAS-G12V): 207 nM
SMILES: Cc1cc2[nH]ncc2c(-c2nccc3c2oc2nc(OC[C@]4(CN(C)C)CC4(F)F)nc(N4CCOC[C@@](C)(O)C4)c23)c1C(F)(F)F [Ex-291, (6S)-4-(2-(((R)-1-((dimethylamino)methyl)-2.2-difluorocyclopropyl)meth-oxy)-8-(6-methyl-5-(trifluoromethyl)-1H-indazol-4-yl)pyrido[4′,3′:4,5]furo[2,3-d]pyrimidin-4-yl)-6-methyl-1,4-oxazepan-6-ol]

- IC50 (PANC08.13 cells; [2]): 974 nM
- IC50 (KRAS-G13D): 1430 nM
- IC50 [1]: 743 nM
- IC50 (KRAS-WT): 1870 nM
- IC50 (KRAS-G12D): 1210 nM
- IC50 (KRAS-G12V): 2120 nM
SMILES: Cc1cc2[nH]nc(C#N)c2c(-c2nccc3c2sc2nc(OC[C@@]45CCCN4C[C@H](F)C5)nc(N4CCOC[C@@](C)(O)C4)c23)c1C(F)(F)F [Ex-150, 4-(2-(((2R,7aS)-2-fluorotetrahydro-1H-pyrrolizin-7a(5H)-yl)methoxy)-4-((S)-6-hydroxy-6-methyl-1,4-oxazepan-4-yl)pyrido[4′,3′:4,5]thieno[2,3-d]pyrimidin-8-yl)-6-methyl-5-(trifluoromethyl)-1H-indazole-3-carbonitrile]

- IC50 (PANC08.13 cells; [2]): 3900 nM
- IC50 (KRAS-G13D): 1320 nM
- IC50 [1]: 124 nM
- IC50 (KRAS-WT): 2760 nM
- IC50 (KRAS-G12D): 7600 nM
- IC50 (KRAS-G12V): 1600 nM
SMILES: Cc1cc2[nH]ncc2c(-c2nccc3c2sc2nc(OC[C@@]45CCCN4C[C@H](F)C5)nc(N4CCOCC4)c23)c1C(F)(F)F [Ex-179, 4-(2-(((2R,7aS)-2-fluorotetrahydro-1H-pyrrolizin-7a(5H)-yl)methoxy)-8-(6-methyl-5-(trifluoromethyl)-1H-indazol-4-yl)pyrido[4′,3′:4,5]thieno[2,3-d]pyrimidin-4-yl) morpholine]

- IC50 (PANC08.13 cells; [2]): 2680 nM
- IC50 (KRAS-G13D): 2310 nM
- IC50 [1]: 648 nM
- IC50 (KRAS-WT): 7210 nM
- IC50 (KRAS-G12D): 1160 nM
- IC50 (KRAS-G12V): 876 nM
SMILES: C[C@@]1(O)COCCN(c2nc(OC[C@@]34CCCN3C[C@H](F)C4)nc3sc4c(-c5c(C(F)F)ccc6[nH]ncc56)nccc4c23)C1 [Ex-134]

- IC50 (PANC08.13 cells; PANC-08-13, KRAS-G12D, 2 hours): 562 nM
- IC50 (KRAS-G13D): 1100 nM
- IC50 [1]: 456 nM
- IC50 (KRAS-WT): 1230 nM
- IC50 (KRAS-G12D): 360 nM
- IC50 (KRAS-G12V): 574 nM
SMILES: Cc1cc2[nH]ncc2c(-c2cncc3c2sc2nc(OC[C@@]45CCCN4C[C@H](F)C5)nc(N4CCOC[C@@](C)(O)C4)c23)c1C(F)(F)F [Ex-273, (6S)-4-(2-(((2R,7aS)-2-fluorotetrahydro-1H-pyrrolizin-7a(5H)-yl)methoxy)-8-(6-methyl-5-(trifluoromethyl)-1H-indazol-4-yl)pyrido[3′,4′:4,5]thieno[2,3-d]pyrimidin-4-yl)-6-methyl-1,4-oxazepan-6-ol]

- IC50 (PANC08.13 cells; [2]): 3930 nM
- IC50 (KRAS-G13D): 813 nM
- IC50 [1]: 78 nM
- IC50 (KRAS-WT): 725 nM
- IC50 (KRAS-G12D): 2270 nM
- IC50 (KRAS-G12V): 428 nM
SMILES: Cc1cc2[nH]ncc2c(-c2nccc3c2sc2nc(OC[C@@]45CCCN4C[C@H](F)C5)nc(N4CCOC(CO)C4)c23)c1C(F)(F)F (stereo partly drawn) [Ex-180, (4-(2-(((2R,7aS)-2-fluoro-tetrahydro-1H-pyrrolizin-7a(5H)-yl)methoxy)-8-(6-methyl-5-(trifluorometh-yl)-1H-indazol-4-yl)pyrido [4′,3′:4,5]thieno[2,3-d]pyr-imidin-4-yl)morpholin-2-yl)methanol]
